Assays:
Type in all cases: in vivo
ICR mice [1] = assay: Pentobarbital sodium subthreshold dose hypnosis test; details: mice gavaged 14 days (250 mg/kg samples; GABA 100 mg/kg); pentobarbital sodium 30 mg/kg BW i.p.; animals asleep within 30 min; *p<0.05, **p<0.01 vs blank group
Description: (§1) • 1. Principle: a pentobarbital sodium subthreshold dose hypnosis test, a sleep latency test and a sleep extension time change test are common test methods for a sleep improvement performance of a health-care food. The method takes a disappearance of a righting reflex as an observation index and is specifically represented as follows: when a mouse is placed on the back to lie, if the mouse cannot turn over for more than 60 s, the righting reflex is considered to disappear, and the mouse falls sleep; if a body position can be righted immediately (within 5 s), the righting reflex is considered to be recovered and the mouse is in a waking state; and a time from the disappearance of the righting reflex to the recovery is an animal sleeping time. • 2. Materials: ICR mice come from the Experimental Animal Center of Zhejiang Academy of Medical Sciences and have the production license number of SCXK (Zhe). The mice are all male, weigh 18 to 22 g and are divided into 10 mice/group. The mice are adapted to the environment in an SPF animal room for 5 to 7 days, wherein environment conditions of the SPF animal room are as follows: a temperature of 20 to 26° C., a humidity of 40% to 70%, and light and shade alternation time of 12 h/12 h. • 3. […]

ICR mice [2] = assay: Sleep latency experiment (pentobarbital sodium); details: mice gavaged 14 days (250 mg/kg samples; GABA 100 mg/kg); pentobarbital sodium 200 mg/kg BW i.p.; *p<0.05 vs blank group
Description: as §1

ICR mice [3] = assay: Sleep extension time change experiment (pentobarbital sodium); details: mice gavaged 14 days (250 mg/kg samples; GABA 100 mg/kg); pentobarbital sodium 30 mg/kg BW i.p.; *p<0.05, **p<0.01 vs blank group
Description: as §1

Structure (SMILES): NCCCC(=O)O [Positive control, y-aminobutyric acid]
- Sleeping rate (ICR mice [1]): 90.00** %
- Sleep latency x ± s (ICR mice [2]): 5.60 ± 1.48* min
- Sleeping time x ± s (ICR mice [3]): 92.36 ± 16.67** min

Source: US20240197805A1, “COMPOSITE FOR RELIEVING […], PREPARATION METHOD THEREFOR, USE THEREOF, DRUG, FOOD AND HEALTH-CARE PRODUCT” (INFINITUS ( CHINA ) COMPANY LTD., priority 2022, published 2024)
